Laboratory results: publication PMC6305398, “Red Fluorescent Chlamydia trachomatis Applied to Live Cell Imaging and Screening for Antibacterial Agents” (Frontiers in Microbiology, 2018)
Converted amounts (≈) assume the structure as drawn. Where two headings read alike, the source gives them in different places.

Key:
[1] = test system: Plasmodium falciparum parasites; settings: antimalarial activity; ref Choomuenwai et al., 2012; cited from earlier work
mammalian cells = settings: cited from earlier work
HeLa cells = experiment: in vitro; type: cell-based
Procedure: (§1) HeLa299 cells were inoculated into clear, flat 96-well plates (Nunc, Delta surface, Thermo Fischer Scientific) with a density of 7,000 cells per well and cultured overnight at 37°C with 5% CO2 in […] supplemented with 10% FBS and 2 mM L-glutamine. The following day, the RPMI was replaced with DMEM without phenol red (Life Technologies, Carlsbad, CA, USA) containing 0.5% DMSO with or without test compounds at 25 and 50 μM concentrations incubated at 37°C with 5% CO2 for 48 h. At least three replicate wells for each compound concentration were tested. Wells without cells were used as blank controls. Following this incubation with compounds, cells were washed with DMEM to remove remaining colored compounds and fresh DMEM without phenol red was added before the XTT Cell Proliferation Assay kit was used according to the manufacturer's instructions (ATCC, Manassas, VA, USA). Briefly, activation reagent and XTT reagent were thawed at 37°C, then mixed in a 1:50 ratio with enough volume to add 50 μL to each well. The plates were placed in the 37°C incubator for 2.5 h. The absorbance of each well was then read at 475 nm and 660 nm with a Tecan Infinite m200 plate reader (Tecan, Männedorf, Switzerland). To analyze the data, the 660 nm reading was subtracted from the 475 nm reading to help eliminate non-specific readings from the assay results. Average blank control-well readings were subtracted from those containing cells. Final readings from wells containing compound were compared to DMSO control wells and expressed as percent of control.

in vitro = type: cell-based; settings: human, 48 h, percent of DMSO control; for viability at 25 µM: read-out: HeLa cell viability at 25 μM (%); for viability at 50 µM: read-out: HeLa cell viability at 50 μM (%) (converted)
Procedure: as §1

[2] = test system: mCherry expressing C. trachomatis serovar L2 454/Bu; experiment: Primary screen of natural compound library, Chlamydia inclusion count (mCherry imaging and FITC immunostaining in duplicate plates); type: cell-based, Chlamydia trachomatis; settings: for inhibition at 10 µM: Chlamydia trachomatis, 48 hpi, HeLa cells, vs DMSO control
Procedure: A general and more detailed protocol for the screening assay is provided in (Supplementary Data Sheet 1) and an overview of the screening method is given in Figure 3. Since inhalation of C. trachomatis aerosols can cause laboratory acquired infections (Sewell, [1995]), all procedures involving handling of live infection in open plates were performed manually inside a class II safety cabinet using 8-channel electronic pipets (Rainin E4 XLS, Mettler Toledo, Barcelona, Spain) and an enclosed aspiration system (Intergra VacuSafe, Zizers, Switzerland).
The primary screen of the 349 open access compound library was performed using the mCherry expressing C. trachomatis serovar L2 454/Bu in clear, flat 96-well plates (Nunc, Delta surface, Thermo Fischer Scientific). The primary screen was done in duplicates in separated plates; one plate was used for mCherry imaging and the other for FITC immunostaining. Cells were seeded at a density of 10,000 cells per well in 100 μl DMEM media 1 day prior to infection in culture media. Chlamydia infection was performed in 30 μl HBSS as described above with a MOI of 0.6 during 1 h at 37°C, 5% CO2. Compounds were diluted to 10 μM in DMEM with a final DMSO concentration of 0.5% and 100 μl per well was added after aspiration of HBSS. The plates were incubated for an additional 47 h at 37°C, 5% CO2 prior to imaging. One of the duplicate plates was used for mCherry imaging and one for FITC immunostaining. For mCherry imaging, HeLa cell nuclei were first stained by addition of 10 μl […] Hoechst per well and incubated at 37°C with 5% CO2 for 20 min. The infected cells were fixed in 4% paraformaldehyde (PFA) for 15 min and washed in PBS before image acquisition. Although fixation was not necessary for the analysis, it inactivated the infectious Chlamydia and enabled later analysis after storage at 4°C. For FITC immunostaining, cells were fixed in 150 μl methanol per well for 10 min, blocked in 1% BSA, 0.25% Tween-20 in PBS and incubated with 1:1,000 polyclonal rabbit anti-chlamydial serum in blocking buffer (Marwaha et al., [2014]). A FITC-conjugated donkey anti-rabbit antibody (Jackson ImmunoResearch) and 1 μg/ml Hoechst staining was used for staining followed by washing with blocking buffer. Images of nuclei (Hoechst-ex386/23 nm) and Chlamydia inclusions (FITC: ex485/20 nm; mCherry: ex549/15 nm) were acquired in the ArrayScan with the 10x objective and counted with the built in software. Chlamydia inclusions in DMSO control wells were used to determine an inclusion size cutoff to exclude small underdeveloped inclusions as well as fluorescent artifacts from the analyses.

Staphylococcus aureus = settings: ref Beattie et al., 2016; cited from earlier work
T. cruzi = settings: ref Zulfiqar et al., 2017; cited from earlier work
Trypanosoma brucei = settings: ref Zulfiqar et al., 2017; cited from earlier work
[3] = ref Davis et al., 2013; cited from earlier work
[4] = MOI 0.6, FITC immunostaining, read-out: Screen inhibition at 10 μM (%) FITC
[5] = MOI 0.6, mCherry detection, read-out: Screen inhibition at 10 μM (%) mCherry

**Q.** Which IC50 [1] does the source give for `COC1=CC(=O)c2c(O)c3c(c(O)c2C1=O)C[C@](C)(O)C[C@@H]3O` [Compound 5, (1S,3S)-austrocortirubin] here?
**A.** Its IC50 is 1900 nM.

**Q.** And the “Toxic effects on mammalian cells” value (mammalian cells; ref Choomuenwai et al., 2012, Wang et al., 2015)?
**A.** The value was “toxic effects”.

**Q.** And the “Reduction of HeLa cell viability” value (HeLa cells; 25 μM)?
**A.** The value was 95%.

**Q.** What about the viability at 25 µM (in vitro) of the same compound?
**A.** Its viability at 25 µM is 5 ± 0.5%.

**Q.** And the viability at 50 µM (in vitro)?
**A.** Its viability at 50 µM is 5.5%.

**Q.** What about the inhibition at 10 µM [2, 4] of the same compound?
**A.** The inhibition at 10 µM was 0%.

**Q.** And the inhibition at 10 µM [2, 5]?
**A.** Its inhibition at 10 µM is 13%.

**Q.** What about the “Inhibition of Chlamydia growth” value ([2]; screen at 10 μM) of the same compound?
**A.** Its value is “did not inhibit Chlamydia growth”.

**Q.** What about the “minimum inhibitory concentration (MIC)” value (Staphylococcus aureus) of the same compound?
**A.** The value was 100 µM (≈ 32 µg/mL).

**Q.** Which results are given for `NCCc1c[nH]c2c1C(=O)C1=C(NC=CS1(=O)=O)C2=O` [Compound 10, thiaplakortone A]?
**A.** Inhibition of T. cruzi, active concentrations (T. cruzi): low micromolar concentrations; Toxicity in mammalian cells (mammalian cells; ref Davis et al., 2013): moderate toxicity; Inhibition of Trypanosoma brucei, active concentrations (Trypanosoma brucei): low micromolar concentrations; Toxicity to HeLa cells (authors' call) (HeLa cells; non-toxic = viability not below 70% of vehicle control at 25 μM): toxic; viability at 25 µM (in vitro): 5 ± 0.4%; viability at 50 µM (in vitro): 5 ± 0.5%; inhibition at 10 µM [2, 4]: 96%; inhibition at 10 µM [2, 5]: 100%; In vitro antimalarial effect, active concentrations [3]: low nanomolar concentrations
